# Results taken from patent US20250108123A1, “COMPOUND-LINKER […] COMPOUNDS USEFUL AS STING AGONISTS AND USES THEREOF” (priority 2021, published 2025).
# Like-named read-outs stand apart in the source and are kept apart here.
# Biological target: human STING WT (Homo sapiens (Human), UniProt Q86WV6)
# Assay: biochemical
# Format: binding
# Method: Cisbio Bioassays' human STING WI binding assay (#64BDSTGPEG & 64BDSTGPEH, Cisbio) is for quantitative measurement of human STING WI ligand using HTRF® technology.
# Negative control: Dispense 5 μL of diluent into each negative control well. Standard: Dispense 5 μL of each Human STING WI Standard 2′3′-cGAMP (Std 0-Std 7) into each standard well. Compound: Dispense 5 μL of compound into each compound well.
# Negative control: Add 5 μL of detection buffer to all wells. Other wells: Add 5 μL of human STING WT protein 6His-tagged protein to all wells.
# Add 10 μL of premixed STING WT ligand d2 reagent and 6His Tb antibody working solution to all wells.
# Seal the plate and incubate 3 hours at RT or at Over Night if necessary.
# Remove the plate sealer and read on an HTRF® compatible reader (PerkinElmer, USA). Results were analyzed with a two-wavelength signal ratio: intensity (665 nm)/intensity (620 nm).
# Cisbio Bioassays' human STING WT binding assay (#64BDSTGPEG & 64BDSTGPEH, Cisbio) is for quantitative measurement of human STING WT ligand using HTRF® technology.
# Negative control: Dispense 5 μL of diluent into each negative control well. Standard: Dispense 5 μL of each Human STING WT Standard 2′3′-cGAMP (Std 0—Std 7) into each standard well. Compound: Dispense 5 μL of compound into each compound well.
# [formula] • Fit the data in GraphPad to obtain IC50 values using equation (2)
# [1] = HTRF, human STING WT 6His-tagged protein, incubation 3 hours at RT, read-out: hSTING WT binding IC50/nM
# [2] = human STING WT, HTRF binding assay, read-out: hSTING WT binding IC50
# Chain of human STING WT (Q86WV6 whole entry): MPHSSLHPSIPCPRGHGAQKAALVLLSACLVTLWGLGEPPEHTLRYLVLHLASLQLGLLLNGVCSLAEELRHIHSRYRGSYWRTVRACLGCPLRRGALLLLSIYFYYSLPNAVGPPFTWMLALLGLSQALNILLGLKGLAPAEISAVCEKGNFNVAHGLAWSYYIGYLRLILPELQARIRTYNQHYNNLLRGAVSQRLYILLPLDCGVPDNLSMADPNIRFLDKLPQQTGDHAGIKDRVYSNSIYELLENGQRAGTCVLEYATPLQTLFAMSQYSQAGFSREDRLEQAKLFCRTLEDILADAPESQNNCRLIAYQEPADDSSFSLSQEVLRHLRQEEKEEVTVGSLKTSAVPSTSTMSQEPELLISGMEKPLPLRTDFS
IC50 [1] [nM],Compound,also measured
> 150,"COc1cc2c(cc1CN(C)Cc1cc3c(cc1OC)CN(C(=O)CCC(=O)O)C3)CN(C(=O)CCC(=O)O)C2 [Example I-7, 4,4′-(((methylazanediyl)bis(methylene))bis(6-methoxyisoindoline-5,2-diyl))bis(4-oxobutanoic acid)]",–
> 150,"C=C(COc1c(OC)cc2c(c1Cl)CN(C(=O)CCC(=O)O)C2)COc1c(OC)cc2c(c1Cl)CN(C(=O)CCC(=O)O)C2 [Example I-11, 4,4′-(((2-methylenepropane-1,3-diyl)bis(oxy))bis(4-chloro-6-methoxyisoindoline-5,2-diyl))bis(4-oxobutanoic acid)]",–
> 150,"COc1cc2c(cc1OCCCOc1c(OC)cc3c(c1Cl)CN(C(=O)CCC(=O)O)C3)CN(C(=O)CCC(=O)O)C2 [Example I-8, 4-(5-(3-((2-(3-carboxypropanoyl)-4-chloro-6-methoxyisoindolin-5-yl)oxy)propoxy)-6-methoxyisoindolin-2-yl)-4-oxobutanoic acid]",–
> 150,"COc1cc2c(c(Cl)c1OCCCOc1c(OC)cc3c(c1Cl)CN(C(=O)CCC(=O)O)C3)CN(C(=O)CCC(=O)O)C2 [Example I-12, 4,4′-((propane-1,3-diylbis(oxy))bis(4-chloro-6-methoxyisoindoline-5,2-diyl))bis(4-oxobutanoic acid)]",–
–,"C=C(COc1c(OC)cc2c(c1Cl)CN(C(=O)CCC(=O)O)C2)COc1c(OC)cc2sc(C(=O)CCC(=O)O)cc2c1F [II-16, 4-(5-((2-(((2-(3-carboxypropanoyl)-4-chloro-6-methoxyisoindolin-5-yl)oxy)methyl)allyl)oxy)-4-fluoro-6-methoxybenzo[b]thiophen-2-yl)-4-oxobutanoic acid]",IC50 [2]: > 150 nM
–,"COc1cc2c(cc1OCCCOc1nc3cc(C(=O)CCC(=O)O)sc3cc1OC)CN(C(=O)CCC(=O)O)C2 [II-8, sodium 4-(5-(3-((2-(3-carboxylatopropanoyl)-6-methoxyisoindolin-5-yl)oxy)propoxy)-6-methoxythieno[3,2-b]pyridin-2-yl)-4-oxobutanoate]",IC50 [2]: 1.04 nM
–,"COc1cc2c(cc1OCCCOc1cc3cc(C(=O)CCC(=O)O)sc3cc1O)CN(C(=O)CCC(=O)O)C2 [II-7, sodium 4-(5-(3-((2-(3-carboxylatopropanoyl)-6-hydroxybenzo[b]thiophen-5-yl)oxy)propoxy)-6-methoxyisoindolin-2-yl)-4-oxobutanoate]",IC50: 0.36 nM
–,"COc1cc2c(cc1OCCCOc1cc3cc(C(=O)CCC(=O)O)sc3cc1Br)CN(C(=O)CCC(=O)O)C2 [II-9, 4-(5-(3-((6-bromo-2-(3-carboxypropanoyl)benzo[b]thiophen-5-yl)oxy)propoxy)-6-methoxyisoindolin-2-yl)-4-oxobutanoic acid]",IC50: 0.65 nM
